Test results published in US10316371B2, “Screening methods for identifying specific Staphylococcus aureus inhibitors” (TRANA DISCOVERY, INC., priority 2011, dated 2019).
Values after ≈ are worked out from the molar mass of the structure shown. Where two headings read alike, the source gives them in different places.

What was measured:
S. aureus strain 29213 = experiment: Time-kill experiments; format: cell-based; details: by 8 hours
Procedure: (§1) Two compounds (#880 and #169) were tested in time-kill assays against S. aureus strain 29213. These compounds were then used to attempt to select for resistant variants by passaging at sub-MIC concentrations for 20 passages.
Twenty mL of MH-II media warmed to 37° C. was seeded with log-phase growth S. aureus strain 29213 at 1×10^6 cfu/mL in 50 mL erlenmeyer shake-flasks. Compound was added at 2× and 4× the MIC value. Negative controls (no drug) and positive drug controls (vancomycin at 2× and 4× the MIC) were included in the experiment. Flasks were shaken at 200 rpm and 37° C. Samples were taken at the times indicated (0, 2, 4, 6, 8 and 24 hrs post inoculation) and bacterial loads were quantified by limiting dilution assay.

[1] = test system: S. aureus specific Arg ASL (anticodon stem loop) RNA oligomer interaction with programmed ribosomes; experiment: Fluorescence polarization assay of Arg ASL / programmed ribosome complex (HTS and dose response); format: binding, S. aureus Arg ASL; E. coli 70S ribosomes; details: control compounds
Text: The assay requires the following materials: • Ribosomes—isolated from E. coli or S. aureus • fMet tRNA (Sigma or Chemical Block, Moscow) • mRNA (including the S-D sequence, the “box” sequence, the codon for methionine, and the codon for arginine that is specific for S. aureus, AGA, optionally with additional base pairs to the left of the S-D sequence and/or to the right of the codon for arginine) • Fluorescently labeled Arg ASL oliogomer • Buffer—HAM20,β • 384 well high binding micro titer plates (Matrix Technologies #4319, sold by Fischer Scientific as cat #50823855), or other appropriate plates for use in high throughput screening • Filtration (Sartorius Stedium 100 Kdalton VC 1042) or centrifugation for complex purification • EDTA—negative control (binding antagonist) • Neomycin—A-site binding enhancer (binding agonist)
A ribosome complex was prepared using the above materials and then purified prior to use in the assay. The prepared complex can be stored in concentrated form at −80° C. The complexes were diluted in buffer and dispensed onto plates. […] Fluorescence polarization was measured at approximately 4 hours after dispensing onto the micro-titer plates.
ASL^Arg was first heated for 2 min at 90° C. in water, after addition of 1/10 V of 10× buffer incubation continued on ice for at least 10 min. Prior to complex formation 70S ribosomes and tRNA were reactivated in buffer for 5 min at 45° C. followed by 10 min at 37° C.; mRNA was heated in buffer at 37° C. for 5 min. • (1000 μl×(2 μM E. coli 70S ribosomes+10 μM mRNA-Arg+4 μM tRNA^fmet)/HAM20,β→30 min @ 37° C.,+1000 μl×(0.2 μM neomycin+[…]))→20 min @ 37° C., overnight on ice • Final complex: (2000 pm P+2000 pm ASL)/2 ml=1 μM P+1 μM ASL HAM20,β:
Preparation of Complexes: The purified complex was diluted in ice cold HAM20,β such that the total fluorescence was approximately 2,000,000 units per 5 μL.
20 μl of the diluted complex was added to all 384 well plates (except for blank wells, which received 20 μL of HAM20 only, without complex) using Multidrop dispenser after which the plates were incubated at 25° C. for 4 hours (target 4.5 hours for middle of batch). Plates were then analyzed for fluorescence polarization in Analyst HT fluorescence plate reader and the following instrument settings:
The parallel and perpendicular fluorescence values of experimental wells were automatically corrected for the corresponding values obtained from the blank wells. The fluorescence polarization was calculated as following: P=(I−Ip)/(I+Ip), wherein Ip—is perpendicular fluorescence and I—is parallel fluorescence.
The percent of effect of experimental compounds was calculated as following: %-Inh=(P0−Pc)/(P0−P100)*100, wherein P0—is average polarization in 0%—inhibition control wells, P100—is average polarization in 100%—inhibition control wells, and Pc—is polarization in compound well.
The 3 sigma HTS hits were cherry picked and retested in 6 pt dose response format, using 3× serial dilution and the top nominal concentration of 100 uM.
The compounds were serially diluted in 10% DMSO and plated into 384 well plates (in a volume of 5 μL) to achieve the nominal final concentration raging from 100 μM to 0.4 μM. The plates received 20 μl of the diluted complex following incubation at 25° C. for 4 hours. Plates were then analyzed for fluorescence polarization as described above (see HTS section).
In parallel, the compounds were tested for auto-fluorescence. To this end, the compounds were plated (using the same dilution protocol) into 384 well plates. The plates received 20 μL of the HAM20 assay buffer only (without complex). The plates were incubated for 4 hrs and then were analyzed for fluorescence polarization as described above.

S. aureus ATCC 29213 = experiment: Resistance passaging experiment; format: cell-based; details: for MIC: Staphylococcus aureus
Procedure: as §1
The selected strain for this experiment was S. aureus ATCC 29213. A frozen glycerol stock was streaked onto MH-II agar and grown overnight at 37° C. The next day, 3-5 colonies were picked and grown in 3 mL of MH-II broth at 37° C. with 200 rpm shaking for approximately 4 hours. A 2-fold microdilution (in round-bottom, 96-well plates) was made for each compound being tested. CLSI guidelines for broth microdilution were followed. Using the bacteria grown from the overnight colonies, each microdilution was inoculated at a final concentration of 5×10^5 colony forming units (CFU)/mL. The microdilutions were incubated at 37° C. for 16 to 20 hours, after which the minimal inhibitory concentration (MIC) of each was read visually. The MIC is defined as the lowest concentration of compound resulting in no visible bacterial growth. This activity is recorded as the MIC at Passage 0. The contents of the well in the next dilution lower in concentration than the MIC (i.e., ½ the MIC) was mixed with a micropipette and 50 μL was transferred to 3 mL of fresh MH-II broth. This was grown at 37° C. with 200 rpm shaking for approximately 4 hours, at which time the sample was turbid. A 1 mL aliquot of this sample was added to a cryovial containing 300 μL of glycerol. This was marked as passage 1, vortexed, than placed in a −80° C. freezer for storage. The rest of the culture was adjusted to a bacterial concentration of 1×10^6cfu/mL (OD600 of 0.004), which was then used to inoculate a microdilution of the same compound (final bacterial concentration of 5×10^5 cfu/mL). This was incubated at 37° C. for 16 to 20 hours. After that time the MIC was once again read and recorded as the MIC at Passage 1. This process was repeated through 20 passages. Ciprofloxacin was included as a control and an untreated sample was also passaged 20 times as a negative control.

Molecule: CN[C@H](CC(C)C)C(=O)N[C@H]1C(=O)N[C@@H](CC(N)=O)C(=O)N[C@H]2C(=O)N[C@H]3C(=O)N[C@H](C(=O)N[C@H](C(=O)O)c4cc(O)cc(O)c4-c4cc3ccc4O)[C@H](O)c3ccc(c(Cl)c3)Oc3cc2cc(c3O[C@@H]2O[C@H](CO)[C@@H](O)[C@H](O)[C@H]2O[C@H]2C[C@](C)(N)[C@H](O)[C@H](C)O2)Oc2ccc(cc2Cl)[C@H]1O [Vancomycin, reference compound]
- reduction of bacterial counts (S. aureus strain 29213; 2× the MIC): 2.5 log10
- reduction of bacterial counts (killing) (S. aureus strain 29213; 4× the MIC): 2.5 log10

Molecule: O=C(O)CN(CCN(CC(=O)O)CC(=O)O)CC(=O)O [EDTA, reference compound]
- effect on complex formation (fluorescence polarization versus time, FIG. 11) [1]: inhibitor of complex formation

Molecule: Neomycin [reference compound]
- effect on complex formation (fluorescence polarization versus time, FIG. 11) [1]: stabilizer of complex formation

Molecule: O=C(O)c1cn(C2CC2)c2cc(N3CCNCC3)c(F)cc2c1=O [Ciprofloxacin]
- MIC in S. aureus 29213 (S. aureus ATCC 29213; Passage 0): 0.5 µg/mL (≈ 1.51 µM)
- MIC in S. aureus 29213 (S. aureus ATCC 29213; Passage 20, passaged at sub-MIC): > 256 µg/mL
- MIC (S. aureus ATCC 29213; ATCC29213, read-out: MIC in S. aureus 29213, Passage 0): 0.5 µg/mL (≈ 1.51 µM)
- MIC (S. aureus ATCC 29213; ATCC29213, read-out: MIC in S. aureus 29213, Passage 1, passaged at sub-MIC): 1 µg/mL (≈ 3.02 µM)
- MIC (S. aureus ATCC 29213; ATCC29213, read-out: MIC in S. aureus 29213, Passage 2, passaged at sub-MIC): 2 µg/mL (≈ 6.04 µM)
- MIC (S. aureus ATCC 29213; ATCC29213, read-out: MIC in S. aureus 29213, Passage 3, passaged at sub-MIC): 2 µg/mL (≈ 6.04 µM)
- MIC (S. aureus ATCC 29213; ATCC29213, read-out: MIC in S. aureus 29213, Passage 4, passaged at sub-MIC): 2 µg/mL (≈ 6.04 µM)
- MIC (S. aureus ATCC 29213; ATCC29213, read-out: MIC in S. aureus 29213, Passage 5, passaged at sub-MIC): 2 µg/mL (≈ 6.04 µM)
- MIC (S. aureus ATCC 29213; ATCC29213, read-out: MIC in S. aureus 29213, Passage 6, passaged at sub-MIC): 2 µg/mL (≈ 6.04 µM)
- MIC (S. aureus ATCC 29213; ATCC29213, read-out: MIC in S. aureus 29213, Passage 7, passaged at sub-MIC): 2 µg/mL (≈ 6.04 µM)
- MIC (S. aureus ATCC 29213; ATCC29213, read-out: MIC in S. aureus 29213, Passage 8, passaged at sub-MIC): 4 µg/mL (≈ 12.1 µM)
- MIC (S. aureus ATCC 29213; ATCC29213, read-out: MIC in S. aureus 29213, Passage 9, passaged at sub-MIC): 8 µg/mL (≈ 24.1 µM)
- MIC (S. aureus ATCC 29213; ATCC29213, read-out: MIC in S. aureus 29213, Passage 10, passaged at sub-MIC): 8 µg/mL (≈ 24.1 µM)
- MIC (S. aureus ATCC 29213; ATCC29213, read-out: MIC in S. aureus 29213, Passage 11, passaged at sub-MIC): 16 µg/mL (≈ 48.3 µM)
- MIC (S. aureus ATCC 29213; ATCC29213, read-out: MIC in S. aureus 29213, Passage 12, passaged at sub-MIC): 16 µg/mL (≈ 48.3 µM)
- MIC (S. aureus ATCC 29213; ATCC29213, read-out: MIC in S. aureus 29213, Passage 13, passaged at sub-MIC): 32 µg/mL (≈ 96.6 µM)
- MIC (S. aureus ATCC 29213; ATCC29213, read-out: MIC in S. aureus 29213, Passage 14, passaged at sub-MIC): 32 µg/mL (≈ 96.6 µM)
- MIC (S. aureus ATCC 29213; ATCC29213, read-out: MIC in S. aureus 29213, Passage 15, passaged at sub-MIC): 32 µg/mL (≈ 96.6 µM)
- MIC (S. aureus ATCC 29213; ATCC29213, read-out: MIC in S. aureus 29213, Passage 16, passaged at sub-MIC): 64 µg/mL (≈ 193 µM)
- MIC (S. aureus ATCC 29213; ATCC29213, read-out: MIC in S. aureus 29213, Passage 17, passaged at sub-MIC): 128 µg/mL (≈ 386 µM)
- MIC (S. aureus ATCC 29213; ATCC29213, read-out: MIC in S. aureus 29213, Passage 18, passaged at sub-MIC): 128 µg/mL (≈ 386 µM)
- MIC (S. aureus ATCC 29213; ATCC29213, read-out: MIC in S. aureus 29213, Passage 19, passaged at sub-MIC): 256 µg/mL (≈ 773 µM)
- MIC (S. aureus ATCC 29213; ATCC29213, read-out: MIC in S. aureus 29213, Passage 20, passaged at sub-MIC): > 256 µg/mL
- MIC (S. aureus ATCC 29213; ATCC29213, read-out: MIC in S. aureus 29213, second Passage 10 line of Table 4 (untreated culture passaged 10 times)): 0.5 µg/mL (≈ 1.51 µM)
- MIC (S. aureus ATCC 29213; ATCC29213, read-out: MIC in S. aureus 29213, second Passage 20 line of Table 4 (untreated culture passaged 20 times)): 0.5 µg/mL (≈ 1.51 µM)
- increase of MIC over 20 passages (S. aureus ATCC 29213; passaging at sub-MIC concentration, 20 passages): > 512 fold
